Each block holds one substance with its values, some of them ahead of it. Non-standard residues stand in square brackets, D forms with d. No end group written: not given here. pT = C[C@@H](OP(=O)(O)O)[C@H](N)C(=O)O
Key:
[1] = target: T1, PP1γ (Homo sapiens, UniProt P36873); assay: MRBLE:Pep concentration-dependent PP1 binding to bead-bound RVxF peptides; settings: bead-bound peptide, PP1 0-2,000 nM with anti-PP1 and Alexa 647 secondary antibody, 24 h at 4°C, 50 mM Tris pH 7.5, 150 mM NaCl, 0.1% TWEEN 20; median and SD across experimental replicates (n = 3); read-out: Kd, MRBLE-pep (Langmuir isotherm fit)
T1 construct: His; made in house; host or cells: E. coli BL21(DE3)
Description: After incubating bead‐bound peptide libraries with PP1, an unlabeled anti‐PP1 primary antibody, and an Alexa 647‐labeled secondary antibody, we washed beads and imaged again in both lanthanide and fluorescence channels to identify peptides and quantify the amount of PP1 bound (Fig 5A). Repeating these experiments over eight different PP1 concentrations enabled acquisition of concentration‐dependent binding curves; fitting the mean intensity of all beads with a given code at different concentrations of PP1γ and fitting to a Langmuir isotherm made it possible to quantify absolute affinities (Figs 5B and Appendix Fig S11).
PP1 concentration‐dependent binding to peptides on MRBLEs was done as described previously (Hein et al, [2021a]). In short, ~ 700 beads per code were mixed in and blocked in 700 μL PBS‐T with 5% BSA. PP1 (2 μM) was preincubated in binding buffer (50 mM Tris pH = 7.5, 150 mM NaCl, and 0.1% TWEEN 20) with 1 μM primary (a‐PPP1CC rabbit polyclonal, Bethyl A300‐906A) and 1 μM goat anti‐rabbit IgG Alexa Fluor 647 (Thermo Fischer, A‐21245). […]
We then computed the mean y max value across all of these peptides and refit concentration‐dependent binding curves for all peptide sequences to the Langmuir isotherm equation using this experimentally determined y max value for all peptide sequences and fitting only the K d term. […]

[2] = target: T1, PP1γ; assay: ITC of RVxF model peptides with PP1γ; type: binding; settings: peptide ~450 μM titrated into PP1γ ~35 μM, 25°C, 50 mM sodium phosphate, 150 mM NaCl, 0.5 mM TCEP, pH 7.5, single-site model
Description: Prior to ITC experiments, both the protein and the peptides were extensively dialyzed against 50 mM sodium phosphate, 150 mM NaCl, and 0.5 mM TCEP, pH 7.5. All ITC experiments were performed on an Auto‐iTC200 instrument (Microcal, Malvern Instruments Ltd.) at 25°C. Both peptide and PP1γ concentrations were determined using a spectrometer by measuring the absorbance at 280 nm and applying values for the extinction coefficients computed from the corresponding sequences by the ProtParam program (http://web.expasy.org/protparam/). The peptides at approximately 450 μM concentration were loaded into the syringe and titrated into the calorimetric cell containing the PP1γ at ~ 35 μM. The reference cell was filled with distilled water. In all assays, the titration sequence consisted of a single 0.4 μl injection followed by 19 injections, 2 μl each, with 150 s spacing between injections to ensure that the thermal power returns to the baseline before the next injection. The stirring speed was 750 rpm. Control experiments with the peptides injected in the sample cell filled with buffer were carried out under the same experimental conditions. […] The heats per injection normalized per mole of injectant versus the molar ratio [peptide]/[PP1γ] were fitted to a single‐site model. Data were analyzed with MicroCal PEAQ‐ITC (version 1.1.0.1262) analysis software (Malvern Instruments Ltd.).

[3] = test system: PP2A‐B55α; assay: Phosphate release assay (PiColorLock / malachite green) with PP2A-B55; type: biochemical, human; settings: B55 WT, peptide 120 μM, 80 ng phosphatase, 20 min 30°C
Description: PP2A‐B55α holoenzymes were purified from HeLa cells stably expressing FLAG‐tagged B55α as previously described (Kruse et al, [2020]).
In vitro phosphatase assays were performed with E. coli–expressed PP1γ or PP2A‐B55α purified from HeLa cell (ATCC, RRID CVCL_0030) extracts as described previously. […] The PiColorLock inorganic phosphate detection kit (abcam) was used to detect the amount of phosphate released from the phosphorylated peptides.

[4] = test system: Venus-B55; assay: Affinity purification (pulldown) of YFP/Venus-B55 from mitotic cells, label-free LC-MS/MS; type: binding, human
Text: (§1) We defined interactomes of PP1γ and B55α during mitosis using affinity purification of YFP‐tagged subunits and also proximity‐dependent ligation using miniTurbo to capture interactions at mitotic exit (Appendix Fig S8) (Branon et al, [2018]; Sears et al, [2019]). […] These identified proteins can constitute both regulators and substrates. […] To understand how these protein interactions might shape dephosphorylation, we first aimed at generating interactome networks and overlay regulated sites. We integrated interactomes and information from the STRING database (Szklarczyk et al, [2023]) with our regulated phosphorylation sites to generate a network of complexes and dephosphorylation sites (Fig 4C and Appendix Fig S9A). For PP1, we also integrated information on known and predicted RVxF motifs (Smith et al, [2019]). […] As an example, CASC5 (KNL1) could scaffold PP1 dephosphorylation of CENPC S261, a phosphorylation site in a nuclear localization sequence. In agreement with previous work, PP2A‐B55 regulated dephosphorylation of several nucleoporins at mitotic exit consistent with Nup153 and TPR being present in the interactomes (Cundell et al, [2016]).
(§2) PP1 and B55 cDNAs were cloned into modified versions of pcDNA5/FRT/TO (Invitrogen) to make N‐terminal fusions to YFP, BioID, or TurboID. Stable cell lines were generated into HeLa/FRT/TRex cells (kind gift from S. Taylor), and for YFP affinity, purification cells were synchronized with thymidine and released into nocodazole‐containing media to arrest them in mitosis. Cells were resuspended in lysis buffer (50 mM NaCl, 50 mM Tris 7,4, 1 mM EDTA, 0.1% NP40, 1 mM DTT, and protease inhibitor cocktail), and following sonication, the lysate was clarified by centrifugation. Cell lysate was incubated with GFP‐Trap beads (Chromotek) for 1 h, washed 3 × 1 ml with lysis buffer, and resuspended in SDS–PAGE loading buffer.
(§3) The Q‐Exactive Plus was set to perform an Orbitrap MS1 scan (R = 70 K; AGC target = 1e6) from 350 to 1,500 m/z, followed by HCD MS2 spectra on the 10 most abundant precursor ions detected by Orbitrap scanning (R = 17.5 K; AGC target = 1e5; max ion time = 50 ms) before repeating the cycle. Precursor ions were isolated for HCD by quadrupole isolation at width = 1 m/z and HCD fragmentation at 26 normalized collision energy (NCE). Charge state 2, 3, and 4 ions were selected for MS2. Precursor ions were added to a dynamic exclusion list ± 20 ppm for 15 s. […] Static modifications included carbamidomethylcysteine and variable modifications included oxidized methionine. […] Missing values were imputed from a normal distribution in Perseus to enable statistical analysis and visualization by volcano plot (Tyanova et al, [2016]). Statistical analysis was carried out in Perseus by two‐tailed Student's t‐test.

[5] = test system: Venus-PP1; assay: Affinity purification (pulldown) of YFP/Venus-PP1 from mitotic cells, label-free LC-MS/MS; type: binding, human
Text: as §1, §2, §3

T1 sequence (P36873 whole entry): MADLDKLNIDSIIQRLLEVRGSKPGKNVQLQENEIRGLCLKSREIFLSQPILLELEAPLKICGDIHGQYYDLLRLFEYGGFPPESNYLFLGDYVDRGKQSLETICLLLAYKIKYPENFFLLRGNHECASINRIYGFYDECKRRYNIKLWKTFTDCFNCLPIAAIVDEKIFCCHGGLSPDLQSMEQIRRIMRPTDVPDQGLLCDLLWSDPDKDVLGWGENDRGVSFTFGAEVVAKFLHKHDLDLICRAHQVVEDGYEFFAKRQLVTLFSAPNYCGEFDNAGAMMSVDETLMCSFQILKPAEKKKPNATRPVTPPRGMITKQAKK

Kd [1]: 3400 ± 700 nM
Substance: AKNSRVTFSEDDEII

Kd [2]: 190 ± 10 nM
Substance: AKNSRVTFSEDDEIW

Substance: INCENP WT: phosphorylated INCENP 53-67 peptide (T59), wild type (PELMPK[pT]PSQKNRRK; UniProt Q9NQS7 53-67, looked up, fragment)
phosphate released from peptide by PP2A-B55 (in vitro dephosphorylation assay, Fig 3B) ([3]; 50 mM Tris pH 7.4, 1 mM MnCl2, 150 mM NaCl, technical repeat 1): 0,806
phosphate released from peptide by PP2A-B55 (in vitro dephosphorylation assay, Fig 3B) ([3]; technical repeat 2): 0,858
phosphate released from peptide by PP2A-B55 (in vitro dephosphorylation assay, Fig 3B) ([3]; technical repeat 3): 0,812

Substance: TOP2A_HUMAN
log2 ratio [Venus-B55/Venus] ([4]; enrichment in Venus-B55 pulldown over Venus control, from 3 replicates each): 1.41
log2 IBAQ [Venus-B55 1] ([4]; pulldown of Venus-B55 from mitotic cells, label-free LC-MS/MS, log2 IBAQ of co-purified protein, replicate 1): 16.03
log2 IBAQ [Venus-B55 2] ([4]; pulldown of Venus-B55 from mitotic cells, label-free LC-MS/MS, log2 IBAQ of co-purified protein, replicate 2): 16.59
log2 IBAQ [Venus-B55 3] ([4]; pulldown of Venus-B55 from mitotic cells, label-free LC-MS/MS, log2 IBAQ of co-purified protein, replicate 3): 15.37
B55 or PP1? ([5]; assignment of the co-purified protein as interactor of Venus-B55 and/or Venus-PP1 (both pulldowns)): B55/PP1
log2 ratio [Venus-PP1/Venus] ([5]; enrichment in Venus-PP1 pulldown over Venus control, from 3 replicates each): 4.66
log2 IBAQ [Venus-PP1 1] ([5]; pulldown of Venus-PP1 from mitotic cells, label-free LC-MS/MS, log2 IBAQ of co-purified protein, replicate 1): 19.15
log2 IBAQ [Venus-PP1 2] ([5]; pulldown of Venus-PP1 from mitotic cells, label-free LC-MS/MS, log2 IBAQ of co-purified protein, replicate 2): 19.33
log2 IBAQ [Venus-PP1 3] ([5]; pulldown of Venus-PP1 from mitotic cells, label-free LC-MS/MS, log2 IBAQ of co-purified protein, replicate 3): 21.02

Reference: publication PMC10698503, “Phosphatase specificity principles uncovered by MRBLE:Dephos and global substrate identification” (Molecular Systems Biology, 2023)
